Entries after “also recorded” stand apart in the source; their conditions may differ.
How the values were obtained:
Lipophilicity = assay type: physicochemical; settings: compared with AMCF3-8
Text: By the term "partition coefficient" as used herein for the purposes of specification and claims is meant the log10 P where P is the ratio of the molar concentrations of the compositions of the composition in octanol-water system. Partition coefficient is a measure of the lipophilic character of the compound. A partition coefficient of 4 therefore means that the ratio of the concentration of the composition in octanol to the concentration in water is 10^4 or 10,000 to 1.

[1] = Solubility of representative compounds in various solvent systems; assay type: physicochemical
Protocol: The solubility of representative compounds of this invention in various solvent systems was determined. The solvents included ethanol, propylene glycol, SLS, Tween 80™ and combinations thereof.

[2] = system: TPA induced mouse ear edema; assay: Acute TPA mouse ear inflammation assay, edema (ear weight); assay type: in vivo
Text: The anti-inflammatory effect of selected compounds of this invention were compared to those of Triclosan™ and hydrocortisone in a modified […] (TPA) mouse ear inflammation assay. TPA was used as an inflammogen rather than croton oil because TPA gives a well characterized inflammatory response at very low concentrations. […] This model can therefore be used to study the pharmacokinetics, clinical efficacy and adverse side effects of anti-inflammatory agents. To quantitate inflammation, ear punches from treated animals were used to measure increased ear mass (edema) and myeloperoxidase (MPO) activity. For the inhibition studies, ear biopsies were weighed six hours after treatment with TPA and the simultaneous application of the compound of the present invention. All the compounds were diluted in acetone. Following this, the biopsies were frozen and subsequently used to measure inhibition of MPO activity, an estimate of polymorphonuclear (PMN) […] activity in the affected area. Percent inhibition of edema was calculated as [c-t]/c x 100, where c and t are increases in ear weight in control and treated mice, respectively.
Initially a dose-response curve for TPA-induced mouse ear edema was generated in order to determine the concentration of TPA to be employed in the inhibition studies. TPA produced a theoretical dose-response curve for edema with an ED50 of 80 ng/ear and an ED90 of 200 ng/ear in two separate experiments. ED50 is the dose at which 50% of the maximum effect was observed while ED90 is the dose at which 90% of the maximum effect was observed. […] The ED50 values for the compounds tested are as follows: […]

[3] = system: TPA treated mouse ear skin; assay: Histopathology of ear biopsies after multiple doses of TPA (epidermal thickness, dermal cellularity); assay type: in vivo, mouse (female CD-1)
Protocol: The assay used female CD-1 mice (7-9 weeks of age). Following a 2-week quarantine, mice were randomly assigned to test groups (5 mice/groups). TPA (10 uL of 0.01 TPA in acetone) was administered to both the inner and outer surface of each ear (2μg/ear) on day 0,2,4,7, and 9 on protocol. On Day 7,8 and 9, two applications of test article were applied to each ear 2 and 4 hours after dosing with TPA. The test articles were administered in 10 uL aliquots to both the inner and outer surface of each ear (20 μl total/dose). The candidate drugs were tested at several different concentrations (e.g., 5, 1.25, and 0.125 mg/ear) to determine a maximum effective dose within a range that could be effectively applied. Hydrocortisone-17-valerate (HCV, 20μg/ear) was employed as a positive control. Mice were sacrificed at Day 10 on protocol and uniform punch biopsies (approximately 8 mm dia.) were taken from each ear. While on protocol, dermal irritation was scored semiquantitatively at Day 1,3,5,8, and 10.
Inhibition of TPA stimulated increased ear weight was used as an initial measure of efficacy for all of the agents tested. One biopsy from each mouse was also quick frozen and stored at -70° C. for later assay of myleoperoxidase, an enzyme associated with infiltrating PMN, or other measure of efficacy. The remaining biopsy from each mouse treated with Trifluorosal or HCV was fixed in formalin and processed for histopathologic evaluation, including measurement of cellular infiltration (PMNs, endothelial cells, macrophages) and epidermal thickness at 20 random sites along the length of the specimen.
In order to confirm the subjective observations, quantitative determinations of 3 parameters (epidermal thickness, dermal thickness, and dermal cellularity) in the skin of negative controls (acetone), positive controls (TPA), and TPA treated skin treated with 3 doses of test article (Trifluorosal) and hydrocortisone were carried out. Epidermal thickness reflects the reactive proliferative activity induced by TPA in the […]: dermal thickness reflects primarily Ad edema but may also be affected by other phenomena, such as formation of granulation tissue, collagen synthesis, the activity of myofibroblasts, etc. Cellularity of the dermis is frequently used as a surrogate marker of inflammatory changes in the dermis.
Determination of the epidermal thickness was performed under the microscope with a calibrated scale placed in the eyepiece. Ten determinations were carried out in the epidermis covering the outside of the ear using a 40× objective and a 10× eyepiece (400× total). The measurements were taken from the basal side of the basal layer (basement membrane) to the outer side of the last nucleated cell of the […]. The average of the 10 measurements expressed in microns was entered in the table.
Determination of dermal thickness was performed using a similar technique. To avoid variability caused by the difference in sizes between the base and tip of the ear, only 3 measurements were performed in the center of the sample. The measurements were performed from the basement membrane of the external and internal epithelial and therefore include, in addition to both dermis (external and internal), the cartilage.
Cellularity of the dermis was calculated by projecting a calibrated grid into the dermis and counting cells in the known area of the dermis. Areas of hair follicles or sebaceous glands were avoided. Five fields were counted and the results were adjusted to the number of cells in 1,000 square microns.
The results of individual animals were entered in the table and the averages and standard deviation were calculated using an EXCEL database. In addition, the results were also expressed as a percentage of the control (acetone treated). Furthermore, the percentage of inhibition of the test articles were calculated using the following formula: [formula]

For `CCCCCCCCCCCCS(=O)(=O)c1ccc(O)c(C(=O)Nc2cccc(C(F)(F)F)c2)c1` [TMF-12], the “Lipophilicity relative to AMCF3-8” value (Lipophilicity) was “more lipophilic than AMCF3-8”, the solubility ([1]; +0.5% tween 80) was 1.34 mg/mL and the solubility ([1]; +1% sls) was 1.66 mg/mL. For the same molecule, the solubility ([1]; +1.5% tween 80) was 4.29 mg/mL, the solubility ([1]; +2% SLS + 0.5% Tween 80) was 3.54 mg/mL and the solubility ([1]; +2% SLS + 1.0% Tween 80) was 4.01 mg/mL. The solubility ([1]; +2% SLS + 2.0% Tween 80) was 5.86 mg/mL, the solubility ([1]; +2% sls) was 2.93 mg/mL and the solubility ([1]; +3.0% tween 80) was 8.34 mg/mL. The solubility ([1]; +4% sls) was 5.74 mg/mL, the solubility ([1]; aqueous buffer, pH 10 Na-buffer @ 22° C.) was less than 0.0001 mg/mL and the “Solubility in anionic and nonionic surfactant solutions relative to AMCF3-8” value ([1]; compared with AMCF3-8) was “greater solubility than AMCF3-8”. It also gave a solubility ([1]; organic solvent or mixture, Ethanol, 22° C.) of 13.6 mg/mL, a solubility ([1]; organic solvent or mixture, Propylene Glycol @ 20° C.) of 6.66 mg/mL and a solubility ([1]; ph 10 na-buffer +0.5% sls, pH 10 Na-buffer @ 22° C. +0.5% SLS) of 1.28 mg/mL. For the same molecule, the ID50 edema ([2]; acute assay) was 18 μg/ear, the “Inhibition of TPA induced mouse ear edema (in words)” value ([2]; acute assay) was “inhibited TPA induced mouse ear edema in a dose-dependent fashion” and the “Relative anti-inflammatory potency (in words)” value ([2]; acute assay) was “most potent of all; also recorded: more potent than AMCF3-8”. For the same molecule, the “Relative anti-inflammatory potency (in words)” value ([2]; acute assay, listed as Trifluorosal) was “the most potent 5-(n-alkylsulfonyl)salicylanilide in this assay”, the “Potency relative to Salifluor” value ([2]; acute edema assay) was “ten” and the “% Inhibition, Dermal Cellularity” value ([3]; 1.25 mg/ear) was 24.6%. For the same molecule, the “% Inhibition, Epidermal Thickness” value ([3]; 1.25 mg/ear) was 48.0%, the “% Inhibition, Dermal Cellularity” value ([3]; 2.50 mg/ear) was 64.3% and the “% Inhibition, Epidermal Thickness” value ([3]; 2.50 mg/ear) was 11.4%. The “% Inhibition, Dermal Cellularity” value ([3]; 5.00 mg/ear) was 47.6%, the “% Inhibition, Epidermal Thickness” value ([3]; 5.00 mg/ear) was 30.0% and the “Blood vessel prominence (in words)” value ([3]; histopathology) was “Blood vessels were not as prominent”. The “Cellularity of the dermis (in words)” value ([3]; histopathology, FIG. 1) was “reduced the epidermal thickness as well as the cellularity of the dermis” and the “Epidermal thickness (in words)” value ([3]; histopathology, FIG. 1) was “reduced the epidermal thickness”.

From US6117859A, “Method of relieving chronic inflammation by using 5-alkylsulfonylsalicylanilides” (The Research Foundation of State University of New York, priority 1999, dated 2000)
